{"source": "paper PMC8298264", "about": "“Function of cofactor Akirin2 in the regulation of gene expression in model human neutrophil-like HL60 cells” (Bioscience Reports, 2021)", "key": {"recAkirin2 [1]": {"molecular_target": "T1, recAkirin2 (Homo sapiens, UniProt Q53H80)", "T1 sequence (Q53H80 whole entry)": "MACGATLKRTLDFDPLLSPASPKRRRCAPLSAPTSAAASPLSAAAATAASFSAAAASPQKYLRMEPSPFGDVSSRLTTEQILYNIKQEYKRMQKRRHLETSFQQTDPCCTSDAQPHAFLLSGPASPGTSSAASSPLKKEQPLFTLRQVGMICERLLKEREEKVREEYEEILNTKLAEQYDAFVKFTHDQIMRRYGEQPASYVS", "assay": "In vitro protein pull-down and Western blot of recAkirin2 with biotinylated histone H3.1 peptides", "format": "binding", "set-up": "DDK (FLAG) (C); purchased GenScript (E. coli) or OriGene (HEK293T); 'insect cells and E. coli'", "details": "streptavidin beads, 1 µg protein, 2 h at RT, Akirin2-specific antibody ab130473"}, "[2]": {"system": "recombinant human Akirin2 (recAkirin2)", "assay": "EpiTriton Histone Peptide Array, recAkirin2 binding (fluorescence)", "details": "recAkirin2 vs HSP70, Student's t test and One-Way ANOVA (P<0.05), n=2 technical replicates"}, "[3]": {"system": "ELANE and LHX2 mRNA in human HL60 cells", "assay": "Akirin2 'distraction' by histone peptide transfection, ELANE and LHX2 mRNA by qRT-PCR", "format": "cell-based", "details": "1.5 μg peptide per well, HL60 1 × 10^5 cells/well, harvested after 72 h; normalized to β-actin; unpaired t test P<0.05, n=3 biological replicates"}, "AKR2": {"system": "AKR2", "set-up": "key: A: Very high confidence in the interaction; B: High confidence in the interaction; D: Moderate confidence in the interaction", "details": "AKR2-interacting proteins (IPs), physical interactome; ref https://doi.org/10.3390/vaccines8010077; cited from earlier work", "from_the_text": "Supplement BSR-2021-1120_supp1.zip/BSR-2021-1120_suppST4.xlsx, sheet \"BPs related to AKR2-IPs\" | column: Predicted Biological Score (PBS)"}, "recAkirin2 [4]": {"molecular_target": "T1, recAkirin2", "assay": "Akirin2–IP interactions in HL60 lysate, c-Myc pull-down and dot blot", "format": "binding", "details": "recAkirin2 on c-Myc beads with HL60 lysate, dot blot; compared with SNRNP70, Student's t test P<0.05, n=2 biological replicates", "description": "Some of the previously identified Akirin2 IPs were selected for analysis of Akirin2–IP interactions in human HL60 cells. The HL60 cells were pelleted, washed with cold PBS and proteins were extracted by adding 1 ml of cold TBS supplemented with protease inhibitor cocktail (Complete Mini EDTA-free, Roche, Switzerland). Cells were disrupted passing through a 20 G needle and sonicated (3 min/cycle, 3 cycles, 25°C) until lysate was clear. Lysate was centrifuged at 12000×g for 30 min at 4°C, after which the supernatant was collected, and protein concentration was determined using the BCA Protein Assay using BSA as the standard. The COOH-(Myc-([…])-DDK)-tagged recAkirin2 produced in human cells was used for interactions with the identified Akirin2–IPs, mediator of RNA polymerase II transcription subunit 16 (THRAP5; Q9Y2X0), phosphatidylinositol transfer protein-α isoform (PITPNA; Q00169), protein Wnt-2 (WNT2; P09544), and splicing factor 3a subunit 1 (SF3A1; Q15459). The U1 small nuclear ribonucleoprotein 70 kDa (SNRNP70; P08621) was used as protein negative control. […] Area and percent analysis of each chemiluminescence dot signal were obtained and analyzed using Fiji program (ImageJ 1.52n; https://downloads.tomsguide.com/ImageJ,0301-31184.html). […]"}, "tick SUB": {"system": "tick SUB", "details": "cited from earlier work", "from_the_text": "Epigenetic modifications of histone H3.1 at Lys amino acids has been involved in the regulation of transcription in different BPs and pathogen infection [[48–51]]."}, "human HL60 cells": {"system": "human HL60 cells", "assay": "SWATH-MS proteomics, differential protein representation, akirin2 KO vs WT HL60 cells", "format": "cell-based", "description": "Total proteins were extracted from WT and akirin2 KO HL60 cells using the AllPrep DNA/RNA/Protein Mini Kit (Qiagen) and protein concentration was determined using the BCA Protein Assay with BSA (Sigma–Aldrich) as standard. Protein extracts (150 µg per sample, n=3 biological replicates) from each WT and KO cells were trypsin digested using the FASP Protein Digestion Kit (Expedeon Ltd., Abcam, Cambridge, U.K.) and sequencing grade trypsin (Promega, Madison, WI, U.S.A.) following manufacturer’s recommendations. The resulting peptides were finally desalted on to OMIX Pipette tips C18 (Agilent Technologies, Santa Clara, CA, U.S.A.), dried down and stored at −20 °C until mass spectrometry analysis. […] Three micrograms of each protein digest from the three biological replicates of WT and akirin2 KO HL60 cells were used for the generation of the reference spectral ion library as part of the SWATH-MS analysis.\nPeptides were eluted in a 120-min gradient from 5 to 30% solvent B in solvent A followed by 15-min gradient from 30 to 60% solvent B in solvent A (solvent A: 0.1% formic acid in water, solvent B: 0.1% formic acid in acetonitrile) and directly injected into the mass spectrometer for analysis. For IDA experiments, the mass spectrometer was set to scanning full spectra (350–1400 m/z) using 250 ms accumulation time per spectrum, followed by up to 50 MS/MS scans (100–1500 m/z). Candidate ions with a charge state between +2 and +5 counts per second above a minimum threshold of 100 were isolated for fragmentation. One MS/MS spectrum was collected for 100 ms, before adding those precursor ions to the exclusion list for 15 s (mass spectrometer operated by Analyst TF 1.6, AB Sciex). Dynamic background subtraction was turned off. MS/MS analyses were recorded in high-sensitivity mode with rolling collision energy on and a collision energy spread of 5. For SWATH quantitative analysis, six independent samples (three replicates from WT and akirin2 KO HL60 cells, 5 µg each) were subjected to the cyclic DIA of mass spectra using the SWATH variable windows calculator (V 1.0, AB Sciex) and the SWATH acquisition method editor (AB Sciex), similar to established methods. […] For these experiments, a 50-ms survey scan (350–1400 m/z) was acquired at the beginning of each cycle, and SWATH–MS/MS spectra were collected from 100–1500 m/z for 70 ms at high-sensitivity mode, resulting in a cycle time of 3.6 s. Collision energy for each window was determined according to the calculation for a charge +2 ion-centered upon the window with a collision energy spread of 15. To create a spectral library of all the detectable peptides in the samples, the IDA MS raw files were combined and subjected to database search in unison using ProteinPilot software v. 5.0.1 (AB Sciex) with the Paragon algorithm. […] The detected protein threshold was set at 0.05. An independent false discovery rate (FDR) analysis, using the target–decoy approach provided by Protein Pilot (AB Sciex; https://sciex.com/products/software/proteinpilot-software), was used to assess the quality of identifications. Positive identifications were considered when identified proteins reached 1% of global FDR. […] Global normalization was performed according to the Total Area Sums (TAS) of all detected proteins in the samples. […] Heatmaps were prepared using the Heatmapper (http://www.heatmapper.ca/expression/) with average linkage and Euclidean distance measurement method."}, "[5]": {"details": "KO vs WT, akirin2 KO vs WT HL60 cells, sheet \"Under-represented in KO\""}, "[6]": {"details": "SWATH-MS, akirin2 KO vs WT HL60 cells, sheet \"Under-represented in KO\""}, "[7]": {"details": "KO vs WT HL60 cells, sheet \"Under-represented in KO\""}, "[8]": {"details": "akirin2 KO vs WT HL60 cells, sheet \"Under-represented in KO\""}, "[9]": {"details": "SWATH-MS, akirin2 KO vs WT HL60 cells, over-represented in KO"}, "[10]": {"details": "Over-represented in KO, KO vs WT HL60 cells"}, "[11]": {"details": "SWATH-MS, akirin2 KO vs WT HL60 cells, under-represented in KO"}}}
{"substance": "ARTKQTARKSTGGK(Me2)APRKQL-Peg-Biot [Peptide H3met, histone H3.1 amino acids 1–20 dimethylated at Lys^14, biotinylated]", "values": [{"measurement": "recAkirin2–histone H3.1 peptide interaction by pull-down and Western blot", "setting": "recAkirin2 [1]", "value": "corroborated by in vitro protein pull-down and Western blot analysis"}, {"measurement": "Akirin2–histone interaction by histone peptide array", "setting": "[2]", "value": "Akirin2–histone H3.1 interacting peptides"}]}
{"substance": "H2A: unrelated histone H2A (amino acids 1–17) peptide (Epicypher, Inc.) (SGRGKQGGKARAKAKTR; UniProt P0C0S8 2-18, looked up, fragment) [Peptide H2A]", "values": [{"measurement": "Effect of transfection on gene expression (ELANE and LHX2 mRNA)", "setting": "[3]", "value": "not the unrelated H2A or HEPES buffer affected gene expression"}]}
{"substance": "RGPD3", "values": [{"measurement": "Predicted Biological Score (PBS)", "setting": "AKR2", "value": "A"}]}
{"substance": "RGPD5", "values": [{"measurement": "Predicted Biological Score (PBS)", "setting": "AKR2", "value": "A"}]}
{"substance": "RGPD8", "values": [{"measurement": "Predicted Biological Score (PBS)", "setting": "AKR2", "value": "A"}]}
{"substance": "SNRNP70: U1 small nuclear ribonucleoprotein 70 kDa (P08621), protein negative control", "values": [{"measurement": "Akirin2–IP interaction", "setting": "recAkirin2 [4]", "value": "low interaction with Akirin2"}]}
{"substance": "WDYHV1", "values": [{"measurement": "Predicted Biological Score (PBS)", "setting": "AKR2", "value": "A"}]}
{"substance": "histone H4 but: histone H4, amino acids 1–23 butyrylated at Lys 5, 8 and 12", "values": [{"measurement": "physical interaction with tick SUB", "setting": "tick SUB", "value": "physical interaction"}]}
{"substance": "sp¦Q01650¦LAT1_HUMAN", "values": [{"measurement": "Fold Change", "setting": "human HL60 cells; [5]", "value": 0.603}, {"measurement": "Log (Fold Change)", "setting": "human HL60 cells; [5]", "value": -0.2197}]}
{"substance": "sp¦Q02880¦TOP2B_HUMAN", "values": [{"measurement": "Fold Change", "setting": "human HL60 cells; [6]", "value": 0.7738}, {"measurement": "Log (Fold Change)", "setting": "human HL60 cells; [6]", "value": -0.1113}]}
{"substance": "sp¦Q07812¦BAX_HUMAN", "values": [{"measurement": "Fold Change", "setting": "human HL60 cells; [7]", "value": 0.5501}, {"measurement": "Log (Fold Change)", "setting": "human HL60 cells; [7]", "value": -0.2596}]}
{"substance": "sp¦Q08945¦SSRP1_HUMAN", "values": [{"measurement": "Fold Change", "setting": "human HL60 cells; [8]", "value": 0.3484}, {"measurement": "Log (Fold Change)", "setting": "human HL60 cells; [8]", "value": -0.4579}]}
{"substance": "sp¦Q09666¦AHNK_HUMAN", "values": [{"measurement": "Fold Change", "setting": "human HL60 cells; [9]", "value": 1.42}, {"measurement": "Log (Fold Change)", "setting": "human HL60 cells; [9]", "value": 0.1523}]}
{"substance": "sp¦Q13283¦G3BP1_HUMAN", "values": [{"measurement": "Fold Change", "setting": "human HL60 cells; [10]", "value": 1.326}, {"measurement": "Log (Fold Change)", "setting": "human HL60 cells; [10]", "value": 0.1226}]}
{"substance": "sp¦Q14165¦MLEC_HUMAN", "values": [{"measurement": "Fold Change", "setting": "human HL60 cells; [11]", "value": 0.7439}, {"measurement": "Log (Fold Change)", "setting": "human HL60 cells; [11]", "value": -0.1285}]}
{"substance": "sp¦Q14204¦DYHC1_HUMAN", "values": [{"measurement": "Fold Change", "setting": "human HL60 cells; [8]", "value": 0.6536}, {"measurement": "Log (Fold Change)", "setting": "human HL60 cells; [8]", "value": -0.1847}]}
{"substance": "sp¦Q14289¦FAK2_HUMAN", "values": [{"measurement": "Fold Change", "setting": "human HL60 cells; [7]", "value": 0.4591}, {"measurement": "Log (Fold Change)", "setting": "human HL60 cells; [7]", "value": -0.3381}]}
{"substance": "sp¦Q14692¦BMS1_HUMAN", "values": [{"measurement": "Fold Change", "setting": "human HL60 cells; [5]", "value": 0.6053}, {"measurement": "Log (Fold Change)", "setting": "human HL60 cells; [5]", "value": -0.218}]}
{"substance": "sp¦Q15056¦IF4H_HUMAN", "values": [{"measurement": "Fold Change", "setting": "human HL60 cells; [10]", "value": 1.397}, {"measurement": "Log (Fold Change)", "setting": "human HL60 cells; [10]", "value": 0.1451}]}
{"substance": "sp¦Q92608¦DOCK2_HUMAN", "values": [{"measurement": "Fold Change", "setting": "human HL60 cells; [7]", "value": 0.4625}, {"measurement": "Log (Fold Change)", "setting": "human HL60 cells; [7]", "value": -0.3349}]}
{"substance": "sp¦Q92616¦GCN1_HUMAN", "values": [{"measurement": "Fold Change", "setting": "human HL60 cells; [7]", "value": 0.4921}, {"measurement": "Log (Fold Change)", "setting": "human HL60 cells; [7]", "value": -0.3079}]}
